Results reported in patent publication US20260157993A1, “USE OF 2-METHYLOXOLANE FOR FEEDING OVIPAROUS ANIMALS” (ECOXTRACT, priority 2022, published 2026).

Legend:
domestic laying hens = experiment: Egg production of domestic laying hens after oral administration in capsules; assay type: in vivo, chicken; settings: for Number of eggs (average number of eggs per day laid by 4 chickens): oral capsules, control 3.5
Procedure: In this example, domestic laying hens have been divided into four groups: • the 4 chickens of the control group have not ingested 2-methyloxolane. • the 12 chickens of the N×1 group have ingested pure liquid 2-methyloxolane in capsules. The ingested dose of pure liquid 2-methyloxoane was 3.18 mg/kg of the chicken/day, i.e. 40 mg/kg in the daily ration, • the 12 chickens of the N×5 group have ingested pure liquid 2-methyloxolane in capsules. The ingested dose of pure liquid 2-methyloxoane was 15.88 mg/kg of the chicken/day, i.e. 200 mg/kg in the daily ration, and • the 12 chickens of the N×10 group have ingested pure liquid 2-methyloxolane in capsules. The ingested dose of pure liquid 2-methyloxoane was 31.77 mg/kg of the chicken/day, i.e. 400 mg/kg in the daily ration (the group N×10). The egg production of each group has been monitored in order to statistically validate the significance of the effect of an oral administration of 2-methyloxolane on egg production. The statistical processing is as follows: A one-factor analysis of variance (ANOVA) has been carried out using the XLSTAT 2020.2.1 software on MS EXCEL 16.0.15225. […] In case of a significant difference between the averages, a Student's t-test with a level of significance of 5% will be applied for the comparison in pairs using the same software. In total, 1,115 eggs have been counted throughout the observations. Table 1 hereinbelow presents the average of the number of eggs per day laid by 4 chickens as a function of their basking group.

rats = settings: 3-month ingestion; cited from earlier work
human = settings: EFSA Opinion of Mar. 15, 2022; cited from earlier work
average human of 50 kg = settings: ICHQ3C R8, solvent to be limited; cited from earlier work

Row | SMILES | Effect of oral administration on number of laid eggs per chicken (domestic laying hens; 40 to 400 mg/kg in daily ration, no apparent dose effect, ANOVA and Student's t-test, 5% level) | Number of eggs (average number of eggs per day laid by 4 chickens) (domestic laying hens; N × 1 group: 3.18 mg/kg of the chicken/day, i.e. 40 mg/kg in the daily ration) | Number of eggs (average number of eggs per day laid by 4 chickens) (domestic laying hens; N × 5 group: 15.88 mg/kg of the chicken/day, i.e. 200 mg/kg in the daily ration) | Number of eggs (average number of eggs per day laid by 4 chickens) (domestic laying hens; N × 10 group: 31.77 mg/kg of the chicken/day, i.e. 400 mg/kg in the daily ration) | More eggs laid per week than animal whose feed is not supplemented (domestic laying hens; feed supplemented by the dietary supplement comprising 2-methyloxolane) | Dose with no undesirable effect observed (rats) | Human exposure limit recommended by EFSA (human) | Acceptable Daily Dose (average human of 50 kg)
1 | CC1CCCO1 (centres unmarked) [2-methyloxolane] | significantly increases | 3.9 | 3.9 | 3.9 | up to 14% | 250 mg/kg body weight per day | 1 mg/kg human body weight per day | 
2 | CCCCCC [hexane] |  |  |  |  |  |  |  | 2.9 mg
